# Test results: article PMC10876879, “Sustained silencing peanut allergy by xanthopurpurin is associated with suppression of peripheral and bone marrow IgE-producing B cell” (Frontiers in Immunology, 2024)
# Like-named read-outs stand apart in the source and are kept apart here.
# Experiments:
# IgE production [1] = assay: IgE production in vivo, other R. cordifolia compounds (data not shown)
# IgE production [2] = assay: IgE production in vitro, other R. cordifolia compounds (data not shown); assay type: cell-based
# [3] = design: method as in PMID 28208101; settings: cited from earlier work
# PN-allergic mice = settings: oral berberine alone; cited from earlier work
# IgE production [4] = settings: cited from earlier work
# IgE = tested on: IgE; design: method as in PMID 26185589; settings: cited from earlier work
molecule,measurement,setting,value
"1,3-dihydroxy-2-ethoxymethyl-9,10 anthraquinone [alizarin]",IgE production in vivo,IgE production [1],failed in vivo
same,IgE production in vitro,IgE production [2],inhibited IgE production only in vitro
COc1ccc2cc3[n+](cc2c1OC)CCc1cc2c(cc1-3)OCO2 [berberine],Bioavailability,[3],poor
same,PN-specific IgE levels,PN-allergic mice,did not reduce PN-specific IgE levels
same,Protection from anaphylaxis,PN-allergic mice,failed to protect PN-allergic mice from anaphylaxis
same,IgE production in vitro,IgE production [4],significantly inhibited the IgE production
"O=C1c2ccccc2C(=O)c2c(O)c(O)cc(O)c21 [purpurin, 1,2,4-trihydroxyanthraquinone]",IgE production in vivo,IgE production [1],failed in vivo
same,IgE production in vitro,IgE production [2],inhibited IgE production only in vitro
"omalizumab: anti-IgE therapy, neutralizes free serum IgE",Anaphylactic reactions during oral immunotherapy (OIT),IgE,greatly reduce anaphylactic reactions
